Assay results taken from patent US20060165612A1, “Compositions for hygienic hand disinfection and disinfectant handwashing” (priority 2005, published 2006).

CCCCC(CC)COCC(O)CO (stereo not shown) [1-(2-ethylhexyl)glycerol ether, 1-(2-Ethylhexyl)glycerol ether]
solubility in water: 0.1 % by weight
